Measurements from patent US10098924B1, “Anticancer extracts of Alpinia officinarum hance” (KING SAUD UNIVERSITY, priority 2018, dated 2018).
Structures can show the parent of a compound that is named as a salt.

Experiments:
Type in all cases: cell-based
[1] = system: A-549 (Lung carcinoma) cells; test: MTT cell viability assay, A-549 cells; settings: Homo sapiens, A549, about 24 hours incubation
Procedure: (§1) Briefly, the cell lines were suspended in medium at concentration of about 5×10^4 cells per well in Corning® 96-well tissue culture plates and incubated for about 24 hours. Extracts prepared according to Example 1 were rehydrated, diluted ten times, and each dilution was added to a well of a 96-well plate (using six replicates). Six vehicle controls with media or 0.5% DMSO were run for each 96 well plate as a control. After incubation for about 24 hours, the number of viable cells was determined by the MTT assay method. Briefly, the media was removed from the 96-well plates and replaced with about 100 μl of fresh culture RPMI 1640 medium without phenol red, then about 10 μl of about 12 mM MTT (Sigma) stock solution (5 mg of MTT in about 1 mL of PBS) was added to each well, including the untreated controls. The 96-well plates were then incubated at about 37° C. and at about 5% CO2 for about 4 hours. An 85 μl aliquot of the media was removed from the wells, and 50 μl of DMSO was added to each well and mixed thoroughly with the pipette and incubated at about 37° C. for about 10 minutes. The optical density was measured at 590 nm with a microplate reader to determine the number of viable cells. The percentage of viability was calculated as: (ODt/ODc)×100%, where ODt is the mean optical density of wells treated with the tested sample and ODe is the mean optical density of untreated cells. […]

[2] = system: HCT-116 (Colon carcinoma) cells; test: MTT cell viability assay, HCT-116 cells; settings: Homo sapiens, about 24 hours incubation
Procedure: as §1

[3] = system: HeLa (Cervical carcinoma) cells; test: MTT cell viability assay, HeLa cells; settings: Homo sapiens, about 24 hours incubation
Procedure: as §1

[4] = system: CACO (colorectal carcinoma) cells; test: MTT cell viability assay, CACO cells; settings: Homo sapiens, about 24 hours incubation
Procedure: as §1

[5] = system: PC3 (prostate cancer) cells; test: MTT cell viability assay, PC3 cells; settings: Homo sapiens, PC-3, about 24 hours incubation
Procedure: as §1

For `CC[C@]1(O)C[C@@H]2CN(CCc3c([nH]c4ccccc34)[C@@](C(=O)OC)(c3cc4c(cc3OC)N(C)[C@H]3[C@@](O)(C(=O)OC)[C@H](OC(C)=O)[C@]5(CC)C=CCN6CC[C@]43[C@@H]65)C2)C1` [Vinblastine Sulfate, vinblastine sulfate], the IC50 [1] was 24.6 ± 0.7 µg/mL, the IC50 [2] was 3.5 ± 0.2 µg/mL and the IC50 [3] was 59.7 ± 2.1 µg/mL. The IC50 [4] was 30.3 ± 1.4 µg/mL and the IC50 [5] was 21.2 ± 0.9 µg/mL.
